According to patent US3963756A, “Derivatives of 6-methyl-2H-pyran-2,4(3H)-dione” (Zaidan Hojin Biseibutsu Kagaku Kenkyu Kai, priority 1972, dated 1976):

Legend:
[1] = target: T1, Tyrosine Hydroxylase (Bos taurus, UniProt P17289); test: Inhibition of tyrosine hydroxylase (TH); assay type: biochemical
T1 sequence (P17289 1-491): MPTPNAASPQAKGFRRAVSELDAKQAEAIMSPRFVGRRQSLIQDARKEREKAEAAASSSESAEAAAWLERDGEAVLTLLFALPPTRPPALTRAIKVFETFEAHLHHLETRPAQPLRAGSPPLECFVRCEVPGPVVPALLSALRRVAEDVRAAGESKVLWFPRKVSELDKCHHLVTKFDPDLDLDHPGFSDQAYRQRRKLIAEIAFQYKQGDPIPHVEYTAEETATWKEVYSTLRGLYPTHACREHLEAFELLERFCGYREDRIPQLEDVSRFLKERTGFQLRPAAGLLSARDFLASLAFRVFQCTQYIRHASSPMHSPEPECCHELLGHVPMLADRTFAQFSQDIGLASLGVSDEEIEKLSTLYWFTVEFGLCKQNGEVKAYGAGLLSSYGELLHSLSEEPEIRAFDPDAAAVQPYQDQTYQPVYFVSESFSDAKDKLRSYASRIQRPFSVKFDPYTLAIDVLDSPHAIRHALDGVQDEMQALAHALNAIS
Excerpt: (§1) The new compounds of the present invention have been examined for their biological activities, and their inhibition to tyrosine hydroxylase and dopamine β-hydroxylase are summarized below in Table 2. The details of the test methods used and the close relationship and reliable correlation of biological activities between in vitro and in vivo test results are well documented in the literature, e.g. J. Antibiot. 23: 514 (1970); Biochem. Pharmacol., 19: 35 (1970); and J. Am. Chem. Soc. 93: 1285 (1971). […] The effects of this compound on tyrosine hydroxylase and dopamine β-hydroxylase were also tested by the methods described in the Journal of Antibiotics 23:514 (1970) and Biochem. Pharmacol. 19:35 (1970), respectively.
(§2) The chemical structure of the products [I], solvent for hydrogenation and solvent for recrystallization are summarised in Table 1, and the yields of the products [I] are also shown in Table 1 together with their melting points, elemental analysis data, Inhibition (%) of tyrosine hydroxylase (TH) and Inhibition (%) to dopamine β-hydroxylase (DH) at different concentrations of the products [I] of 100 mcg/cc and 200 mcg/cc.

[2] = tested on: mice; test: Toxicity in mice (LD50; 30-day daily dosing); assay type: in vivo; conditions: 160, 40 and 10 mg/kg orally or intraperitoneally daily to mice for 30 days
[3] = tested on: mice and rats; test: Sleeping / sedative effect in mice and rats; assay type: in vivo; conditions: injection of 200 mg/kg to mice and rats
Excerpt: (§3) Hydroxylation of tyrosine is the rate-limiting step of norepinephrine biosynthesis. Therefore, inhibition of tyrosine hydroxylase results in inhibition of norepinephrine synthesis in vivo which results in lowering the blood pressure. […] Okamoto, of the Medical School, University of Kyoto, Japan, and described in "Journal of Antibiotics" 23: 514 (1970).

[4] = tested on: rat; test: Blood pressure in rats; assay type: in vivo; conditions: for systolic blood pressure lowered to: 6.25 mg/kg i.p.
Procedure: as §3
When 6.25 mg/kg was intraperitoneally injected to a rat of 185 mm. systolic blood pressure and another rat of 188 mm., the blood pressure was then lowered to 115-145 mm. and 138-166 mm. respectively during 1-22 hours after the injection. When […]. was intraperitoneally injected to a rat of 190 mm. systolic blood pressure, the pressure was reduced to 146-162 mm. during 1-22 hours after the injection. […] It caused 20-30% reduction of blood pressure which continued for about 5 days after the last oral administration.

[5] = tested on: genetically hypertensive rats; test: Blood pressure in genetically hypertensive rats; assay type: in vivo; conditions: genetically hypertensive rats (Okamoto)
Excerpt: as §3

[6] = target: T2, Dopamine β-Hydroxylase (Bos taurus, UniProt P15101); test: Inhibition of dopamine β-hydroxylase (DH); assay type: biochemical
T2 sequence (P15101 1-610): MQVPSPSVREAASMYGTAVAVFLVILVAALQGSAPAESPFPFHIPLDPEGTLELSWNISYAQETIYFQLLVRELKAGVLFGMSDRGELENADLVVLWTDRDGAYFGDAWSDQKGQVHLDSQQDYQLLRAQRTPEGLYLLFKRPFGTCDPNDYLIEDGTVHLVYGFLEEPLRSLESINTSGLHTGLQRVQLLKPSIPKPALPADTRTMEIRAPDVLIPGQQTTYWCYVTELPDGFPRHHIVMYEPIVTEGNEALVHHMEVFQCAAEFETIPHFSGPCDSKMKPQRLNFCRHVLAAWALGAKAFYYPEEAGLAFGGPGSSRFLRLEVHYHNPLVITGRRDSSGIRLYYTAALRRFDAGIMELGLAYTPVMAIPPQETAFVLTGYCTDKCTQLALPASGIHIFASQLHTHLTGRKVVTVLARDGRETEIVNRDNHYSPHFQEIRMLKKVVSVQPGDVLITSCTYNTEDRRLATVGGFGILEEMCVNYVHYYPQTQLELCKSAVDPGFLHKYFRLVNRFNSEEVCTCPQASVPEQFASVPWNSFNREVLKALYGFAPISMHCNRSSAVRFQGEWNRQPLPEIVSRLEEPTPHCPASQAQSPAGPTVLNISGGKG
Excerpt: as §1, §2

[7] = Toxicity in mice (LD50; 30-day daily dosing); assay type: in vivo; conditions: mouse, in vivo, ip; mice, intraperitoneal injection
[8] = Lowering of blood pressure (general statements); parameters: species or system mammals; conditions: in vivo
[9] = tested on: bacteria and fungi; conditions: Chemical Abstracts 50, 980e; cited from earlier work
[10] = oral daily for three days, 3.1, 6.25, 12.5, 25 mg/kg

For `COc1ccccc1CCC(=O)C1C(=O)C=C(C)OC1=O` (stereo not drawn) [3-(2-methoxyhydrocinnamoyl)-6-methyl-2H-pyran-2,4(3H)-dione] [listing 1 of 2 here], the “inhibition % to tyrosine hydroxylase” value ([1]; 12.5 mcg/cc) was 10%, the “inhibition % to tyrosine hydroxylase” value ([1]; 25 mcg/cc) was 18% and the “inhibition % to tyrosine hydroxylase” value ([1]; 50 mcg/cc) was 22%. The “inhibition % to tyrosine hydroxylase” value ([1]; 100 mcg/cc) was 32%, the usual toxic signs [2] was “none of the usual toxic signs appeared except a decrease in the blood pressure” and the “sleeping and sedative effect” value [3] was “did not cause sleeping and a sedative effect was not recognized”. The “duration of blood pressure reduction after the last oral administration” value [4, 10] was “about 5 days”, the “reduction of blood pressure” value [4, 10] was 20-30% and the “reduction of blood pressure (in words)” value [4, 10] was “marked reduction of blood pressure”. The “systolic blood pressure lowered to” value ([4]; rat of 185 mm systolic, during 1-22 hours after injection) was 115-145 mm, the “systolic blood pressure lowered to” value ([4]; rat of 188 mm systolic, during 1-22 hours after injection) was 138-166 mm and the “systolic blood pressure reduced to” value ([4]; rat of 190 mm systolic, 12.5 mm/kg (so in the source) i.p., during 1-22 hours after injection) was 146-162 mm. The “systolic and diastolic blood pressure” value ([4]; rats, daily injection or daily oral administration, 3.5 mg/kg) was “lowered both the systolic and the diastolic blood pressure” and the hypotensive effect [5] was “even more markedly”.

`COc1ccccc1CCC(=O)C1C(=O)C=C(C)OC1=O` (stereo not drawn) [3-(2-methoxyhydrocinnamoyl)-6-methyl-2H-pyran-2,4(3H)-dione] [listing 2 of 2 here] showed an IC50 [6] of 1910 nM and an LD50 [7] of 1200 mg/kg.

With `CC1=CC(=O)C(C(=O)CCc2ccccc2)C(=O)O1` (stereo not drawn) [3-hydrocinnamoyl-6-methyl-2H-pyran-2,4(3H)-dione, reference compound] the inhibition at 100 µg/mL ([1]; 100 mcg/cc) was 49.7%, the inhibition at 200 µg/mL ([1]; 200 mcg/cc) was 52.8% and the “inhibition to DH” value ([6]; 100 mcg/cc) was 100%. For the same compound, the “blood pressure reducing (hypotensive) activity, in words” value [8] was “active in reducing blood pressure” and the “antibacterial and antifungal activity” value [9] was “weak antibacterial and antifungal activity”.
